Measured values from paper PMC8272044, “5-Phenoxy Primaquine Analogs and the Tetraoxane Hybrid as Antimalarial Agents” (Molecules, 2021).
Where two headings read alike, the source gives them in different places.

Tests used:
P. falciparum 3D7 = test: In vitro blood antimalarial activity, malaria SYBR green I-based fluorescence (MSF) method; format: cell-based; conditions: Plasmodium falciparum; P. falciparum 3D7, blood stage, 48 h, mean ± SD of three biological repeats
Procedure: P. falciparum strain 3D7 (wild-type drug sensitive strain) was used in this study. This parasite was maintained continuously in vitro in human O+ erythrocytes (4% hematocrit) at 37 °C under 3% CO2 and 90% N2 in RPMI 1640 culture media (Life Technologies Limited, Paisley, UK) containing 2 mM L-Glutamine, 25 mM HEPES (Sigma), pH 7.4, 2g/L NaHCO3, 40 mg/L gentamicin, 0.37 mM hypoxanthine, and supplemented with 5 g/L Albumax I (Life Technologies, Grand Island, NY, USA). Every 3 to 4 days, the parasite culture was synchronized with 5% sorbitol and transferred into complete medium with uninfected erythrocytes. In vitro antimalarial activity was determined by using the malaria SYBR green I-based fluorescence (MSF) method. Briefly, 0.09 mL of cultured 1% ring-stage synchronized parasites and 2% hematocrit were transferred to individual wells of a standard 96-well microtiter plate and in vitro culture continued for 48 h, with 0.01 mL of compound at different concentration in each well. The compounds were first dissolved in DMSO and diluted with RPMI medium to 1% DMSO. The final concentration of DMSO in each well was 0.1%, which caused no effect on the parasite viability. Following 48 h, SYBR Green I solution (0.02 µL of 10,000X SYBR Green I/100 µL of buffer solution consisted of 20 mM Tris 20, pH 7.5, 5 mM EDTA, 0.008% w/v saponin and 0.08% v/v Triton X-100) was then added to each well, and fluorescence signals were measured by spectrofluorometer at ex485/em 535 nm. […] The result of each compound was normalized with control media for the overall background subtraction as 0% and untreated parasite with 0.1% DMSO as 100% control.

[1] = Cytotoxicity by sulforhodamine B (SRB) colorimetric assay; format: cell-based, African green monkey; conditions: African green monkey, Vero cells, 72 h, SRB, mean ± SD of three repeats
Source text: (§1) A cytotoxicity test of selected analogs against African green monkey kidney fibroblast (Vero cells) was obtained from Bioassay Laboratory, BIOTEC, NSTDA, Thailand. They were maintained continuously in MEM/EBSS medium (Hyclone Laboratories Inc., South Logan, UT, USA), supplemented with 10% heated fetal bovine serum (GE Healthcare, PAA Laboratories GmbH, Pasching, Austria), 2.2 g/L Sodium bicarbonate (Emsure, Merck kGaA, Darmstadt, Germany), and 1% sodium pyruvate (Sigma). […] Then, the cells were fixed with 100 µL of 10% trichloroacetic acid (Sigma) at 4 °C for 45 min, washed, and dried at room temperature overnight. […] Finally, 200 µL of 10× Tris-base was added to each well to dissolve protein-bound dye. The OD was determined at a wavelength of 510 nm. The control media was used for overall background subtraction as 0% and untreated cells as 100% control without any cytotoxic effect. The IC50 value of each compound was determined from the dose–response curve.

[2] = system: African green monkey kidney fibroblast (Vero cells); test: as above; format: cell-based; conditions: Vero CC50 / P. falciparum 3D7 IC50
Source text: as §1

hematin polymerization = test: Inhibition of hematin polymerization (heme polymerization assay); format: biochemical;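 on %Inh1: test concentrations in µM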;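 on %Inh2: test concentrations in µM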;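 on %Inh3: test concentrations in µM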
Procedure: The ability of the 5-phenoxy primaquine analogs to inhibit hematin polymerization was investigated using a protocol modified from the one described previously. […] After it was left standing for 15 min, Tween 20 (0.5 μM; Sigma) was added. […] The assay was performed in triplicate, and results were expressed as the percentage of inhibition relative to hemozoin formation in a negative control. The IC50 values were obtained from the sigmoidal dose–response curves using nonlinear regression curve fitting analyses with GraphPad Prism version 3.00 software. Each IC50 value is the result of at least three separate experiments.

[3] = Vero cells (kidney fibroblasts)
[4] = pH 5.0, mean ± SD of three independent repeats, read-out: IC50, inhibition of hemozoin-initiated hematin polymerization
[5] = primary data, repeat 1, read-out: IC50, heme polymerization inhibition, repeat 1
[6] = primary data, repeat 2, read-out: IC50, heme polymerization inhibition, repeat 2
[7] = primary data, repeat 3, read-out: IC50, heme polymerization inhibition, repeat 3

Compound	%Inh1 (hematin polymerization; conc 2, repeat 1) [%]	%Inh2 (hematin polymerization; conc 2, repeat 2) [%]	%Inh3 (hematin polymerization; conc 2, repeat 3) [%]	%Inh1 (hematin polymerization; conc 10, repeat 1) [%]	%Inh2 (hematin polymerization; conc 10, repeat 2) [%]	%Inh3 (hematin polymerization; conc 10, repeat 3) [%]	%Inh1 (hematin polymerization; conc 50, repeat 1) [%]	%Inh2 (hematin polymerization; conc 50, repeat 2) [%]	%Inh3 (hematin polymerization; conc 50, repeat 3) [%]	%Inh1 (hematin polymerization; conc 100, repeat 1) [%]	%Inh2 (hematin polymerization; conc 100, repeat 2) [%]	%Inh3 (hematin polymerization; conc 100, repeat 3) [%]	%Inh1 (hematin polymerization; conc 200, repeat 1) [%]	%Inh2 (hematin polymerization; conc 200, repeat 2) [%]	%Inh3 (hematin polymerization; conc 200, repeat 3) [%]	%Inh1 (hematin polymerization; conc 400, repeat 1) [%]	%Inh2 (hematin polymerization; conc 400, repeat 2) [%]	%Inh3 (hematin polymerization; conc 400, repeat 3) [%]	IC50 (hematin polymerization; [4]) [µM]	IC50 (hematin polymerization; [5]) [µM]	also measured
COc1cc(NC(C)CCCN)c2ncccc2c1Oc1ccccc1 (stereo not drawn) [7a, N^4-(6-Methoxy-5-phenoxyquinolin-8-yl)pentane-1,4-diamine]	0.76	8.32	5.77	4.28	12.65	9.75	19.81	31.60	24.35	50.68	59.92	49.55	89.17	88.25	88.23	101.81	100.63	95.73	102 ± 4.1	105	IC50 (P. falciparum 3D7): 3.65 ± 0.39 µM; CC50 at 72 h [1, 3]: 37.5 ± 5.24 µM; SI, selectivity index = CC50 on Vero cells / IC50 in the blood stage [2]: 10.27; IC50 (hematin polymerization; [6]): 96 µM; IC50 (hematin polymerization; [7]): 104 µM
COc1ccc(Oc2c(OC)cc(NC(C)CCCN)c3ncccc23)cc1 (stereo not drawn) [7b, N^4-(6-Methoxy-5-(4-methoxyphenoxy)quinolin-8-yl)pentane-1,4-diamine]	2.65	5.23	1.85	5.02	7.53	11.84	15.24	19.36	16.35	40.12	39.30	42.63	67.25	67.23	71.49	94.57	90.75	98.34	160 ± 2.2	162	IC50 (P. falciparum 3D7): 7.89 ± 0.5 µM; CC50 at 72 h [1, 3]: 55.6 ± 4.34 µM; SI, selectivity index = CC50 on Vero cells / IC50 in the blood stage [2]: 7.05; IC50 (hematin polymerization; [6]): 160 µM; IC50 (hematin polymerization; [7]): 157 µM
COc1cc(NC(C)CCCN)c2ncccc2c1Oc1ccc(Br)cc1 (stereo not drawn) [7c, N^4-(5-(4-Bromophenoxy)-6-methoxyquinolin-8-yl) pentane-1,4-diamine]	7.63	6.63	1.36	8.52	5.82	7.32	12.67	18.23	10.74	31.46	32.12	38.23	63.35	63.64	61.57	90.44	88.93	90.95	175 ± 4.3	170	IC50 (P. falciparum 3D7): 7.03 ± 1.31 µM; CC50 at 72 h [1, 3]: 42.2 ± 3.25 µM; SI, selectivity index = CC50 on Vero cells / IC50 in the blood stage [2]: 6.00; IC50 (hematin polymerization; [6]): 181 µM; IC50 (hematin polymerization; [7]): 175 µM
COc1cc(NC(C)CCCN)c2ncccc2c1Oc1ccc(Cl)cc1 (stereo not drawn) [7d, N^4-(6-Methoxy-5-(4-chlorophenoxy)quinolin-8-yl)pentane-1,4-diamine]	7.78	6.26	2.78	12.08	17.37	9.55	28.15	20.53	25.95	39.02	49.70	40.32	81.92	79.27	75.78	96.57	99.33	91.32	132 ± 5.3	135	IC50 (P. falciparum 3D7): 8.2 ± 0.83 µM; CC50 at 72 h [1, 3]: 46.4 ± 5.68 µM; SI, selectivity index = CC50 on Vero cells / IC50 in the blood stage [2]: 5.66; IC50 (hematin polymerization; [6]): 125 µM; IC50 (hematin polymerization; [7]): 137 µM
COc1cc(NC(C)CCCN)c2ncccc2c1Oc1ccc(C#N)cc1 (stereo not drawn) [7e, 4-((8-((5-Aminopentan-2-yl)amino)-6-methoxyquinolin-5-yl)oxy)benzonitrile]	8.32	3.87	7.94	3.78	12.84	9.43	19.32	16.35	21.70	30.12	30.64	17.31	52.26	55.89	45.17	78.42	85.27	69.64	286 ± 11.9	291	IC50 (P. falciparum 3D7): 4.62 ± 0.56 µM; CC50 at 72 h [1, 3]: > 100 µM; SI, selectivity index = CC50 on Vero cells / IC50 in the blood stage [2]: >21.65; IC50 (hematin polymerization; [6]): 269 µM; IC50 (hematin polymerization; [7]): 297 µM
COc1cc(NC(C)CCCN)c2ncccc2c1Oc1ccc(F)cc1 (stereo not drawn) [7f, N^4-(5-(4-Fluorophenoxy)-6-methoxyquinolin-8-yl) pentane-1,4-diamine]	6.02	1.81	11.52	14.36	7.54	9.67	18.94	24.82	18.18	36.82	32.41	35.89	67.61	72.28	73.29	89.47	91.81	104.26	167 ± 8.6	155	IC50 (P. falciparum 3D7): 4.97 ± 0.4 µM; CC50 at 72 h [1, 3]: 47.5 ± 3.23 µM; SI, selectivity index = CC50 on Vero cells / IC50 in the blood stage [2]: 9.55; IC50 (hematin polymerization; [6]): 171 µM; IC50 (hematin polymerization; [7]): 175 µM
COc1cc(NC(C)CCCN)c2ncccc2c1Oc1ccc(C(N)=O)cc1 (stereo not drawn) [7h, 4-((8-((5-Aminopentan-2-yl)amino)-6-methoxyquinolin-5-yl)oxy)benzamide]	6.92	2.87	14.16	8.33	17.48	18.60	22.32	30.21	30.28	39.91	44.86	40.80	66.71	77.84	84.25	87.23	92.60	103.26	154 ± 6.4	154	IC50 (P. falciparum 3D7): 13.5 ± 1.57 µM; CC50 at 72 h [1, 3]: > 100 µM; SI, selectivity index = CC50 on Vero cells / IC50 in the blood stage [2]: >7.41; IC50 (hematin polymerization; [6]): 162 µM; IC50 (hematin polymerization; [7]): 146 µM
CCN(CC)CCCC(C)Nc1ccnc2cc(Cl)ccc12 (stereo not drawn) [CQ, chloroquine, reference compound]	14.98	12.22	11.21	19.21	27.67	27.09	49.80	36.78	59.78	84.80	81.20	70.36	96.36	72.73	85.74	105.70	94.31	97.41	61.2 ± 1.3	61.3	IC50 (hematin polymerization; [6]): 59.6 µM; IC50 (hematin polymerization; [7]): 62.8 µM
Cc1c2ccncc2c(C)c2c1[nH]c1ccccc12 [EPT, ellipticine, reference compound]																					CC50 at 72 h [1]: 5.97 ± 0.14 µM
